Laboratory results reported in US9695155B2, “Herbicidal substituted pyrimidinyloxy benzene compounds” (E. I. DU PONT DE NEMOURS AND COMPANY, priority 2013, dated 2017).

What was measured:
Heteranthera limosa = assay: Test B flooded paddy test; assay type: in vivo; conditions: Flood, 250 g ai/ha; 0 to 100 scale where 0 is no effect and 100 is complete control
Protocol: (§1) Plant species in the flooded paddy test selected from rice (Oryza sativa), sedge, umbrella (small-flower umbrella sedge, Cyperus difformis), (Heteranthera limosa), and barnyardgrass (Echinochloa crus-galli) were grown to the 2-leaf stage for testing. At time of treatment, test pots were flooded to 3 cm above the soil surface, treated by application of test compounds directly to the paddy water, and then maintained at that water depth for the duration of the test. Treated plants and controls were maintained in a greenhouse for 13 to 15 days, after which time all species were compared to controls and visually evaluated. Plant response ratings, summarized in Table B, are based on a scale of 0 to 100 where 0 is no effect and 100 is complete control. A dash (-) response means no test result.

rice = assay: Test B flooded paddy test; assay type: in vivo, Oryza sativa; conditions: Flood, 250 g ai/ha; 0 to 100 scale where 0 is no effect and 100 is complete control
Protocol: as §1

barnyardgrass [1] = assay: Test B flooded paddy test; assay type: in vivo, Echinochloa crus-galli; conditions: Flood, 250 g ai/ha; 0 to 100 scale where 0 is no effect and 100 is complete control
Protocol: as §1

large (Lg) crabgrass [2] = assay: Test A postemergence; assay type: in vivo, Digitaria sanguinalis
Procedure, shortened: (§2)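 Pre- and postemergence greenhouse screen. Soil: loam + sand. Spray carrier: solvent mixture, non-phytotoxic, with surfactant. Post timing at 1–2 leaves, height 2–10 cm. Readout: visual injury on a 0–100 scale roughly 10 days after application, untreated plants as reference.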

large (Lg) crabgrass [3] = assay: Test A preemergence; assay type: in vivo, Digitaria sanguinalis; conditions: for Crabgrass, Large plant response rating: 500 g ai/ha
Excerpt: (§3) Seeds of plant species selected from barnyardgrass (Echinochloa crus-galli), kochia (Kochia scoparia), ragweed (common ragweed, Ambrosia elatior), Italian ryegrass (Lolium multiflorum), large (Lg) crabgrass (Digitaria sanguinalis), giant foxtail (Setaria faberii), morningglory (Ipomoea spp.), pigweed (Amaranthus retroflexus), velvetleaf (Abutilon theophrasti), wheat (Triticum aestivum), and corn (Zea mays) were planted into a blend of loam soil and sand and treated preemergence with a directed soil spray using test chemicals formulated in a non-phytotoxic solvent mixture which included a surfactant.
(§4) At the same time, plants selected from these crop and weed species and also blackgrass (Alopecurus myosuroides), and galium (catchweed bedstraw, Galium aparine) were planted in pots containing the same blend of loam soil and sand and treated with postemergence applications of test chemicals formulated in the same manner. Plants ranged in height from 2 to 10 cm and were in the one- to two-leaf stage for the postemergence treatment. Treated plants and untreated controls were maintained in a greenhouse for approximately 10 days, after which time all treated plants were compared to untreated controls and visually evaluated for injury. Plant response ratings, summarized in Table A, are based on a 0 to 100 scale where 0 is no effect and 100 is complete control. A dash (-) response means no test result.

pigweed [4] = assay: Test A preemergence; assay type: in vivo, Amaranthus retroflexus; conditions: for Pigweed plant response rating: 500 g ai/ha
Excerpt: as §3, §4

corn [5] = assay: Test A postemergence; assay type: in vivo, Zea mays
Procedure, shortened: as §2

corn [6] = assay: Test A preemergence; assay type: in vivo, Zea mays; conditions: for Corn plant response rating: 500 g ai/ha
Excerpt: as §3, §4

velvetleaf [7] = assay: Test A postemergence; assay type: in vivo, Abutilon theophrasti
Excerpt: as §3, §4

sedge, umbrella = assay: Test B flooded paddy test; assay type: in vivo, Cyperus difformis; conditions: Flood, 250 g ai/ha; 0 to 100 scale where 0 is no effect and 100 is complete control
Protocol: as §1

morningglory [8] = assay: Test A postemergence; assay type: in vivo, Ipomoea spp.; conditions: 0 to 100 scale where 0 is no effect and 100 is complete control
Procedure, shortened: as §2

morningglory [9] = assay: Test A preemergence; assay type: in vivo, Ipomoea spp.; conditions: for Morningglory plant response rating: 500 g ai/ha
Excerpt: as §3, §4

wheat [10] = assay: Test A preemergence; assay type: in vivo, Triticum aestivum; conditions: for Wheat plant response rating: 500 g ai/ha
Procedure, shortened: as §2

pigweed [11] = assay: Test A postemergence; assay type: in vivo, Amaranthus retroflexus
Procedure, shortened: as §2

velvetleaf [12] = assay: Test A preemergence; assay type: in vivo, Abutilon theophrasti; conditions: for Velvetleaf plant response rating: 500 g ai/ha
Procedure, shortened: as §2

barnyardgrass [13] = assay: Test A postemergence; assay type: in vivo, Echinochloa crus-galli
Excerpt: as §3, §4

giant foxtail [14] = assay: Test A postemergence; assay type: in vivo, Setaria faberii
Procedure, shortened: as §2

giant foxtail [15] = assay: Test A preemergence; assay type: in vivo, Setaria faberii; conditions: for Foxtail, Giant plant response rating: 500 g ai/ha
Excerpt: as §3, §4

barnyardgrass [16] = assay: Test A preemergence; assay type: in vivo, Echinochloa crus-galli; conditions: for Barnyardgrass plant response rating: 500 g ai/ha
Procedure, shortened: as §2

wheat [17] = assay: Test A postemergence; assay type: in vivo, Triticum aestivum
Procedure, shortened: as §2

[18] = 125 g ai/ha, 0 to 100 scale where 0 is no effect and 100 is complete control
[19] = 500 g ai/ha, 0 to 100 scale where 0 is no effect and 100 is complete control
[20] = 0 to 100 scale where 0 is no effect and 100 is complete control
[21] = 500 g ai/ha, 0 to 100 scale, 0 no effect, 100 complete control
[22] = 0 to 100 scale, 0 no effect, 100 complete control, approx. 10 days

O=[N+]([O-])c1cnc(Oc2ccccc2-n2cc(Br)cn2)nc1 [Compound 225]
Plant response rating, Ducksalad (Heteranthera limosa): 0 | Plant response rating, Rice (rice): 0 | Plant response rating, Barnyardgrass (barnyardgrass [1]): 0 | Crabgrass, Large plant response rating (large (Lg) crabgrass [2]; [18]): 0 | Plant response rating, Crabgrass, Large (large (Lg) crabgrass [2]; [19]): 10 | Crabgrass, Large plant response rating (0 to 100 scale) (large (Lg) crabgrass [3]; 125 g ai/ha): 0 | Crabgrass, Large plant response rating (large (Lg) crabgrass [3]; [20]): 0 | Pigweed plant response rating (0 to 100 scale) (pigweed [4]; 125 g ai/ha): 0 | Pigweed plant response rating (pigweed [4]; [20]): 0 | Corn plant response rating (corn [5]; [18]): 0 | Plant response rating, Corn (corn [5]; [19]): 0 | Corn plant response rating (0 to 100 scale) (corn [6]; 125 g ai/ha): 0 | Corn plant response rating (corn [6]; [20]): 0 | Velvetleaf plant response rating (velvetleaf [7]; [18]): 0 | Plant response rating, Velvetleaf (velvetleaf [7]; [19]): 0 | Plant response rating, Sedge, Umbrella (sedge, umbrella): 0 | Morningglory plant response rating (morningglory [8]; 125 g ai/ha): 0 | Plant response rating, Morningglory (morningglory [8]; 500 g ai/ha): 0 | Morningglory plant response rating (0 to 100 scale) (morningglory [9]; 125 g ai/ha): 0 | Morningglory plant response rating (morningglory [9]; [20]): 0 | Wheat plant response rating (0 to 100 scale) (wheat [10]; 125 g ai/ha): 0 | Wheat plant response rating (wheat [10]; [20]): 0 | Pigweed plant response rating (pigweed [11]; [18]): 0 | Plant response rating, Pigweed (pigweed [11]; [19]): 0 | Velvetleaf plant response rating (0 to 100 scale) (velvetleaf [12]; 125 g ai/ha): 0 | Velvetleaf plant response rating (velvetleaf [12]; [20]): 0 | Barnyardgrass plant response rating (barnyardgrass [13]; [18]): 0 | Plant response rating, Barnyardgrass (barnyardgrass [13]; [19]): 10 | Foxtail, Giant plant response rating (giant foxtail [14]; [18]): 0 | Plant response rating, Foxtail, Giant (giant foxtail [14]; [19]): 0 | Foxtail, Giant plant response rating (0 to 100 scale) (giant foxtail [15]; 125 g ai/ha): 0 | Foxtail, Giant plant response rating (giant foxtail [15]; [20]): 0 | Barnyardgrass plant response rating (0 to 100 scale, 0 is no effect, 100 is complete control) (barnyardgrass [16]; 125 g ai/ha): 0 | Barnyardgrass plant response rating (barnyardgrass [16]; [20]): 0 | Wheat plant response rating (wheat [17]; [18]): 0 | Plant response rating, Wheat (wheat [17]; [19]): 0

Cc1nn(-c2ccccc2Oc2ncc(Cl)cn2)cc1Br [Compound 37]
Plant response rating, Ducksalad (Heteranthera limosa): 0 | Plant response rating, Rice (rice): 0 | Plant response rating, Barnyardgrass (barnyardgrass [1]): 0 | Plant response rating, Crabgrass, Large (large (Lg) crabgrass [2]; [18]): 0 | Plant response rating, Crabgrass, Large (large (Lg) crabgrass [2]; [21]): 0 | Plant response rating, Crabgrass, Large (large (Lg) crabgrass [3]; [18]): 10 | Crabgrass, Large plant response rating (large (Lg) crabgrass [3]; [22]): 80 | Plant response rating, Pigweed (pigweed [4]; [18]): 0 | Pigweed plant response rating (pigweed [4]; [22]): 0 | Plant response rating, Corn (corn [5]; [18]): 0 | Plant response rating, Corn (corn [5]; [21]): 0 | Plant response rating, Corn (corn [6]; [18]): 0 | Corn plant response rating (corn [6]; [22]): 0 | Plant response rating, Velvetleaf (velvetleaf [7]; [18]): 20 | Plant response rating, Velvetleaf (velvetleaf [7]; [21]): 40 | Plant response rating, Sedge, Umbrella (sedge, umbrella): 0 | Plant response rating, Morningglory (morningglory [9]; [18]): 0 | Morningglory plant response rating (morningglory [9]; [22]): 0 | Plant response rating, Wheat (wheat [10]; [18]): 0 | Wheat plant response rating (wheat [10]; [22]): 0 | Plant response rating, Pigweed (pigweed [11]; [18]): 0 | Plant response rating, Pigweed (pigweed [11]; [21]): 10 | Plant response rating, Velvetleaf (velvetleaf [12]; [18]): 10 | Velvetleaf plant response rating (velvetleaf [12]; [22]): 10 | Plant response rating, Barnyardgrass (barnyardgrass [13]; [18]): 0 | Plant response rating, Barnyardgrass (barnyardgrass [13]; [21]): 0 | Plant response rating, Foxtail, Giant (giant foxtail [14]; [18]): 0 | Plant response rating, Foxtail, Giant (giant foxtail [14]; [21]): 0 | Plant response rating, Foxtail, Giant (giant foxtail [15]; [18]): 10 | Foxtail, Giant plant response rating (giant foxtail [15]; [22]): 30 | Plant response rating, Barnyardgrass (barnyardgrass [16]; [18]): 0 | Barnyardgrass plant response rating (barnyardgrass [16]; [22]): 10 | Plant response rating, Wheat (wheat [17]; [18]): 0 | Plant response rating, Wheat (wheat [17]; [21]): 0
